Test [1] is filed under the species Mus musculus. Nature of the test: Anticonvulsant activity against pentylenetetrazole-induced seizure in ICR mouse after 30 mins. It is filed as functional. The conditions noted are these: 0.5 h.
Test [2] is filed under the species Mus musculus. Briefly: Anticonvulsant activity in ICR mouse after 30 mins by MES test. The conditions noted are these: 0.5 h. It is filed as functional.

The structures appear in SMILES notation.

On to `O=C(NC1COCC(=O)N(Cc2ccc(F)cc2)C1=O)OCc1ccccc1` (stereo unspecified), for which the ED50 in the test listed under Mus musculus [1] is 53.9 mg/kg; in the test listed under Mus musculus [2], over 100 mg/kg.
On the same counts, the results for `O=C(NC1COCC(=O)N(Cc2ccco2)C1=O)OCc1ccccc1` (stereo unspecified) are 64.1 mg/kg and over 100 mg/kg.
Turning to `O=C(NC1COCC(=O)N(Cc2ccccc2)C1=O)OCc1ccccc1` (stereo unspecified), the ED50 in the test listed under Mus musculus [1] is 64.1 mg/kg; in the test filed under Mus musculus [2] it was over 100 mg/kg.
For `CCCCCCN1C(=O)COCC(NC(=O)OCc2ccccc2)C1=O` (stereo unspecified), in that order: 35.6 mg/kg and 87.5 mg/kg.
Turning to `CC(C)CN1C(=O)COCC(NC(=O)OCc2ccccc2)C1=O` (stereo unspecified), the ED50 in the test filed under Mus musculus [1] and in the test listed under Mus musculus [2] was over 100 mg/kg throughout.
Regarding `O=C(NC1COCC(=O)N(C2CC2)C1=O)OCc1ccccc1` (stereo unspecified), the figures for the ED50 in the test filed under Mus musculus [1] and in the test filed under Mus musculus [2] were 27 mg/kg and 87.5 mg/kg, respectively.
For `CN1C(=O)COCC(NC(=O)OCc2ccccc2)C1=O` (stereo unspecified), in that order: 41 mg/kg and 68.8 mg/kg.
For `CCCN1C(=O)COCC(NC(=O)OCc2ccccc2)C1=O` (stereo unspecified), in that order: over 100 mg/kg and over 100 mg/kg.
In the case of `O=C1COCC(NC(=O)OCc2ccccc2)C(=O)N1` (stereo unspecified), the ED50 in the test filed under Mus musculus [1] is 55.1 mg/kg; in the test listed under Mus musculus [2], 81.2 mg/kg.
On the same counts, the results for `C=CCN1C(=O)COCC(NC(=O)OCc2ccccc2)C1=O` (stereo unspecified) are 37.1 mg/kg and 70.3 mg/kg.
For `CCCCN1C(=O)COCC(NC(=O)OCc2ccccc2)C1=O` (stereo unspecified), in that order: 34.8 mg/kg and 93.8 mg/kg.
On the same counts, the results for `O=C(NC1COCC(=O)N(O)C1=O)OCc1ccccc1` (stereo unspecified) are 96.9 mg/kg and 93.8 mg/kg.
Consider `CCCC(CCC)C(=O)O` [VALPROIC ACID], for which the ED50 came to 149 mg/kg in the test listed under Mus musculus [1] and 271 mg/kg in the test listed under Mus musculus [2].

What is called ED50 is the dose at which the effect has come halfway, by size or by number of responders.

Source of the values: ChEMBL document CHEMBL1143098, “Design and synthesis of 6-amino-1,4-oxazepane-3,5-dione derivatives as novel broad spectrum anticonvulsants” (2008).
